Reference: patent US10294229B2, “Heteroaryl substituted aminopyridine compounds” (BRISTOL-MYERS SQUIBB COMPANY, priority 2015, dated 2019)

Experiments:
IRAK4 = IRAK4 (Homo sapiens (Human), UniProt Q9NWZ3); test: IRAK4 Inhibition Assay; type: biochemical; conditions: ATP 500 μM; IRAK4 0.6 nM
How it was run: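 Enzyme 0.6 nM, ATP 500 μM, FL-peptide 1.5 μM, DMSO 1.6%; HEPES pH 7.2/MgCl2/Brij 35/DTT buffer. RT, 60 min, EDTA stop. Mobility-shift product/substrate ratio; % inhib vs no-enzyme and vehicle controls.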

[1] = Caco-2 Permeability Assay; type: in vitro ADME; conditions: human, Caco-2, test compound 3 μM
Experimental: Caco-2 Permeability Assay
Thirteen to 27 days prior to assay, Caco-2 cells were seeded onto collagen-coated polycarbonate filter membranes in 24-well transwell plates at a density of 1.45×10^5 cells/cm^2, approximately 4.8×10^4 cells per well. The cells were grown in a culture medium consisting of DMEM supplemented with 10% fetal bovine serum, 10 mM HEPES, 1% nonessential amino acids, 2 mM L-glutamine, 100 U/mL penicillin-G, and 100 μg/mL streptomycin. The culture medium was replaced every 3 days and the cells were maintained at 37° C. in a 95% relative humidity and 5% CO2 atmosphere. The cells were evaluated for tight junction formation just prior to assay. The test compound was solubilized to 10 mM in 100% DMSO and diluted to 3 μM in assay buffer. Permeability studies were initiated by adding 200 μL assay buffer plus/minus compound to the apical transwell compartment and 600 μL assay buffer plus/minus compound to the basolateral compartment of the 24-well transwell low-binding cluster plate. For apical-to-basolateral (A to B) permeability (absorptive direction), buffer containing compound was placed in the apical compartment (donor wells), while buffer alone was placed in the corresponding basolateral compartments (receiver wells). For basolateral-to-apical (B to A) permeability (secretive direction), buffer containing compound was placed in the basolateral compartment (donor wells), while buffer alone was placed in the corresponding apical compartments (receiver wells). Transwells were then incubated for 2 hours at 37° C. in a 95% relative humidity and 5% CO2 atmosphere with gentle agitation. Following incubation, 100 μL was removed from each apical and basolateral compartment and transferred to 96-well low binding plates that had been previously loaded with 100 μL/well of acetonitrile containing 250 nM propranolol, 250 nM diclofenac, and 500 nM tolbutamide as internal standards. The samples were subsequently analyzed by LC-MS/MS to determine concentrations of compound.

[2] = test system: Human whole blood stimulated with a TLR2 agonist (lipoteichoic acid), IL-6 levels; test: IRAK4 Whole Blood Assay; type: cell-based; conditions: Homo sapiens, lipoteichoic acid 10 μg/mL
How it was run: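 ACD-A-anticoagulated human whole blood was preincubated with compounds for 60 min at 37 °C under 5% CO2. It was then stimulated with 10 μg/mL lipoteichoic acid (final) in RPMI for 5 h. IL-6 in plasma supernatants was measured by flow cytometry bead assay.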

Sequence of IRAK4 (Q9NWZ3 whole entry, species assumed): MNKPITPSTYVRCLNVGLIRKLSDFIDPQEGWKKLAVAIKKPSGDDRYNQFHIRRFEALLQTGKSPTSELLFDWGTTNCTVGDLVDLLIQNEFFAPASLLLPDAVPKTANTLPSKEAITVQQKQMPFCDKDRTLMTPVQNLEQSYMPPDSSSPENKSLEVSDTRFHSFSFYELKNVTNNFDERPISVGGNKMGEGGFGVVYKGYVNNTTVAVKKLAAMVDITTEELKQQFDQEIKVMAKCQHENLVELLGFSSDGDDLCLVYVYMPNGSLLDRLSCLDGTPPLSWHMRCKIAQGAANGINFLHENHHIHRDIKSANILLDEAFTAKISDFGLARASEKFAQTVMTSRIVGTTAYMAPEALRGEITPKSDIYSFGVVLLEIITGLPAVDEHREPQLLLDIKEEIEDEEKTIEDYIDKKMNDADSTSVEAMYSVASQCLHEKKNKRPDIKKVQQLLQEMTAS

Row | IC50 (IRAK4) | Papp at 2 h, 3 µM [1] | EC50 [2] | Structure (SMILES)
1 | 5 nM | 14.8 ×10⁻⁶ cm/s | – | CC(C)Nc1cc(-n2ncc3cc(C#N)cnc32)ncc1-c1cn([C@@H]2CCCC[C@@]2(C)O)nn1 (relative stereo) [Example 64, 1-(5-(1-((1R,2R)-2-hydroxy-2-methylcyclohexyl)-1H-1,2,3-triazol-4-yl)-4-(isopropylamino)pyridin-2-yl)-1H-pyrazolo[3,4-b]pyridine-5-carbonitrile]
2 | – | < 1.5 ×10⁻⁶ cm/s | 1330 nM | N#Cc1cnc2c(cnn2-c2cc(NC3CC3)c(-c3cn([C@@H]4CNCC[C@H]4O)nn3)cn2)c1 (relative stereo) [Example 207, 1-(4-(cyclopropylamino)-5-(1-((trans)-4-hydroxypiperidin-3-yl)-1H-1,2,3-triazol-4-yl)pyridin-2-yl)-1H-pyrazolo[3,4-b]pyridine-5-carbonitrile]
3 | – | 2.4 ×10⁻⁶ cm/s | 490 nM | CC(C)Nc1cc(-n2ncc3cc(C#N)cnc32)ncc1-c1cn([C@@H]2CCNC[C@@H]2F)nn1 (relative stereo) [Example 209, 1-(5-(1-((cis)-3-fluoropiperidin-4-yl)-1H-1,2,3-triazol-4-yl)-4-(isopropylamino)pyridin-2-yl)-1H-pyrazolo[3,4-b]pyridine-5-carbonitrile]
4 | – | 31.9 ×10⁻⁶ cm/s | 290 nM | COC(=O)NCC1CC(c2cnc(-n3ncc4cc(C#N)cnc43)cc2NC(C)C)=NO1 (single isomer, unassigned) [Example 436, Methyl ((3-(6-(5-cyano-1H-pyrazolo[3,4-b]pyridin-1-yl)-4-(isopropylamino)pyridin-3-yl)-4,5-dihydroisoxazol-5-yl)methyl)carbamate]
5 | 3 nM | 27.8 ×10⁻⁶ cm/s | – | CCCn1cc(-c2cnc(-n3cnc4cc(C#N)cnc43)cc2NC(C)C)nn1 [Example 40, 3-(4-(isopropylamino)-5-(1-propyl-1H-1,2,3-triazol-4-yl)pyridin-2-yl)-3H-imidazo[4,5-b]pyridine-6-carbonitrile]
6 | 5 nM | 5.7 ×10⁻⁶ cm/s | – | CC(C)Nc1cc(-n2cnc3cc(C#N)cnc32)ncc1-c1cn(CCC(F)(F)F)nn1 [Example 42, 3-(4-(isopropylamino)-5-(1-(3,3,3-trifluoropropyl)-1H-1,2,3-triazol-4-yl)pyridin-2-yl)-3H-imidazo[4,5-b]pyridine-6-carbonitrile]
7 | – | 20 ×10⁻⁶ cm/s | – | CCCn1cc(-c2cnc(-n3cnc4cc(C#N)cnc43)cc2Nc2cnn(CC)c2)nn1 [Example 59]
8 | 16 nM | 5.9 ×10⁻⁶ cm/s | – | CC(C)Nc1cc(-n2ncc3cc(C#N)cnc32)ncc1-c1cn(C[C@@H](C)O)nn1 [Example 66, (R)-1-(5-(1-(2-hydroxypropyl)-1H-1,2,3-triazol-4-yl)-4-(isopropylamino)pyridin-2-yl)-1H-pyrazolo[3,4-b]pyridine-5-carbonitrile]
9 | – | 17.9 ×10⁻⁶ cm/s | 270 nM | CC(C)Nc1cc(-n2ncc3cc(C#N)cnc32)ncc1-c1cn(C2CN(CC(F)F)C2)nn1 [Example 153]
10 | 13 nM | < 1.5 ×10⁻⁶ cm/s | – | CC(C)Nc1cc(-n2ncc3cc(C#N)cnc32)ncc1-c1cn([C@H]2CCNC[C@H]2O)nn1 [Example 177, 1-(5-(1-((3R,4S)-3-hydroxypiperidin-4-yl)-1H-1,2,3-triazol-4-yl)-4-(isopropylamino)pyridin-2-yl)-1H-pyrazolo[3,4-b]pyridine-5-carbonitrile]
11 | 15 nM | 23.7 ×10⁻⁶ cm/s | – | CCCc1cn(-c2cnc(-n3cnc4cc(C#N)cnc43)cc2NC(C)C)nn1 [Example 278, 3-(4-(isopropylamino)-5-(4-propyl-1H-1,2,3-triazol-1-yl)pyridin-2-yl)-3H-imidazo[4,5-b]pyridine-6-carbonitrile]
12 | – | < 1.5 ×10⁻⁶ cm/s | 270 nM | CCNC1CCC(c2cn(-c3cnc(-n4ncc5cc(C#N)cnc54)cc3NC(C)C)nn2)CC1 (centres unmarked) [Example 356, 1-(5-(4-((1s,4s)-4-(ethylamino)cyclohexyl)-1H-1,2,3-triazol-1-yl)-4-(isopropylamino)pyridin-2-yl)-1H-pyrazolo[3,4-b]pyridine-5-carbonitrile]
